Data published in patent US12528777B2, “Quinazolinones derivatives for treatment of non-alcoholic fatty liver disease, preparation and use thereof” (Council of Scientific and Industrial Research, priority 2020, dated 2026).
“Also recorded” adds a separate entry of the source.

Key:
Plasma stability assay = format: in vitro ADME, human; conditions: for Mean % remaining at 2 hrs in human Plasma: 1 μM, 37° C., 120 min, LC-MS/MS; for Plasma stability: human plasma, after 2 hours, with respect to Propantheline
Method: 1 mM Stock of test compound was prepared from 10 mM initial stock solution of compounds by diluting 10 μL of 10 mM stock with 90 μL of DMSO. Then 10 μL of 1 mM stock was diluted with 90 µL of DMSO to give 100 μM concentration. The frozen plasma was thawed at room temperature and centrifuged at 1400 rpm at 4° C., for 15 minutes. Approximately […] of the clear supernatant fraction was transferred to a separate tube and was used for the assay. Final working stock of 1 μM was prepared by diluting 3 μL of 100 μM with 297 μL of plasma. Plasma containing the test compound was incubated for 120 min at 37° C. in shaker with 500 rpm. 50 μL of aliquot of sample at 0, 15, 30, 60 and 120 minutes were precipitated with 150 μL of acetonitrile containing internal standard and centrifuged at 4000 rpm at 4° C. for 20 minutes. 120 μL of supernatant was diluted with 120 μL of water and analyzed by LC-MS/MS.

ATGL [1] = experiment: Western blot of ATGL level in HepG2 cells; format: cell-based; design: key to Increase in ATGL level: + = slight or in insignificant; ++ = Moderate; +++ and ++++ = active; +++ and ++++ = active; +++++ = very active; conditions: for Increase in ATGL level: HepG2 cells, score; for Increase in ATGL level / ATGL level in HepG2 cells: western blot; for ATGL level in HepG2 cells: 24 hours, 10 μM screening or 50 nM-5 μM dose dependent; for EC50: fold increase of ATGL by densitometry, as % of 1.6 fold maximum with siCOP1, doses 10-5000 nM, read-out: EC50 (in-vitro)
In short: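 HepG2 cells were treated with compound 24 h (10 μM screen; 50 nM–5 μM dose series) and lysed. 30 μg protein was western blotted for ATGL, with actin as loading reference. ATGL increase was expressed as percent of the 1.6-fold siCOP1 maximum and plotted against log concentration for EC50.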

ATGL [2] = experiment: qPCR of ATGL mRNA in HepG2 cells; format: cell-based; conditions: 5 μM and 10 μM, 24 hours
Method: Ubiquitination of ATGL by COP1 is a post translational event, therefore, it is expected that the mRNA level of ATGL will not change compared to control upon treatment with the compound of the present disclosure which inhibit COP1. To establish this, HepG2 cells were treated with 5 μM and 10 μM of the compounds 9, 107, 171, 179 and 73 for 24 hours. RNA was isolated using TRIzol reagent followed by chloroform treatment and precipitation with isopropanol. cDNA was obtained from the isolated RNA and qPCR was carried out using SyBr green reagent. COP1 and ATGL gene expression levels were checked. 18s was used as control. FIG. 8 illustrates that compounds exert no effect on the mRNA levels of ATGL.

| SMILES | Mean % remaining at 2 hrs in human Plasma (Plasma stability assay) [%] | Plasma stability (Plasma stability assay) | EC50 (ATGL [1]) [nM] | Increase in ATGL level (ATGL [1]) | ATGL level in HepG2 cells (ATGL [1]) | ATGL mRNA level (ATGL [2]) |
| --- | --- | --- | --- | --- | --- | --- |
| COCCn1cnc2ccc(NC(=O)Nc3cccc(C(C)=O)c3)cc2c1=O [Compound 9, 1-(3-acetylphenyl)-3-(3-(2-methoxyethyl)-4-oxo-3,4-dihydroquinazolin-6-yl)urea] | 16.9 | lower plasma stability | – | +++++ | increased ATGL level | no significant changes |
| COCCn1c(C)nc2ccc(NC(=O)Nc3cccc(C(C)=O)c3)cc2c1=O [Compound 107, 1-(3-acetylphenyl)-3-(3-(2-methoxyethyl)-2-methyl-4-oxo-3,4-dihydroquinazolin-6-yl)urea] | – | – | – | ++++ | – | no significant changes |
| CC(=O)c1cccc(NC(=O)Nc2ccc3ncn(CCCN4CCOCC4)c(=O)c3c2)c1 [Compound 139, 1-(3-acetylphenyl)-3-(3-(3-morpholinopropyl)-4-oxo-3,4-dihydroquinazolin-6-yl)urea] | 55.50 | good plasma stability | 1.19 | +++ | increased ATGL level; also recorded: some sort of increase in ATGL level | – |
| COCC(C)n1cnc2ccc(NC(=O)Nc3cccc(C(C)=O)c3)cc2c1=O (centres unmarked) [Compound 179, 1-(3-acetylphenyl)-3-(3-(1-methoxypropan-2-yl)-4-oxo-3,4-dihydroquinazolin-6-yl)urea] | 20.6 | lower plasma stability | – | +++++ | – | no significant changes |

The next lines start with results.

| Mean % remaining at 2 hrs in human Plasma (Plasma stability assay) [%] | Plasma stability (Plasma stability assay) | EC50 (ATGL [1]) [nM] | SMILES | Increase in ATGL level (ATGL [1]) | ATGL level in HepG2 cells (ATGL [1]) | ATGL mRNA level (ATGL [2]) |
| --- | --- | --- | --- | --- | --- | --- |
| 80.70 | good plasma stability | 30.2 | COCCn1c(-c2cccnc2)nc2ccc(NC(=O)Nc3cccc(C(C)=O)c3)cc2c1=O [Compound 215, 1-(3-acetylphenyl)-3-(3-(2-methoxyethyl)-4-oxo-2-(pyridin-3-yl)-3,4-dihydroquinazolin-6-yl)urea] | – | increased ATGL level | – |
| 73.9 | good plasma stability | 29.5 | COCCn1c(-c2ccncc2)nc2ccc(NC(=O)Nc3cccc(C(C)=O)c3)cc2c1=O [Compound 219, 1-(3-acetylphenyl)-3-(3-(2-methoxyethyl)-4-oxo-2-(pyridin-4-yl)-3,4-dihydroquinazolin-6-yl)urea] | – | increased ATGL level | – |
| 98.1 | good plasma stability | 1.02 | COCCn1c(CN2CCCCC2)nc2ccc(NC(=O)Nc3cccc(C(C)=O)c3)cc2c1=O [Compound 238, 1-(3-acetylphenyl)-3-(3-(2-methoxyethyl)-4-oxo-2-(piperidin-1-ylmethyl)-3,4-dihydroquinazolin-6-yl)urea] | +++++ | increased ATGL level; also recorded: most potent in increasing ATGL and COP1 levels; also recorded: increase in ATGL and COP1 levels | – |
